Measurements: patent US20240398812A1 (Caraway Therapeutics, Inc., priority 2021, published 2024)

Assays:
Type in all cases: cell-based
human TRPML1 = human TRPML1 (Homo sapiens, UniProt Q9GZU1); experiment: Fluorescent TRPML1 assay (Fluo4-AM calcium fluorescence, HEK-293 Trex cells)
Outline: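 Tet-inducible HEK-293 Trex cells stably expressing surface-targeted mutant human TRPML1, induced with 0.5 ug/mL doxycycline overnight, loaded with Fluo4-AM and suspended in Ringer's with 10 mM calcium. Compounds tested from 20 μM to 6 nM final, half-log steps, in triplicate; fluorescence (ex 480/em 540) normalised to plate controls, EC50 by non-linear regression.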

TRPML3 = target: T1, TRPML3 (Homo sapiens, UniProt Q8TDD5); experiment: Fluorescent TRPML3 assay (as for TRPML1)
T1 construct: expressed in transfected cells
T1 sequence (Q8TDD5 1-553): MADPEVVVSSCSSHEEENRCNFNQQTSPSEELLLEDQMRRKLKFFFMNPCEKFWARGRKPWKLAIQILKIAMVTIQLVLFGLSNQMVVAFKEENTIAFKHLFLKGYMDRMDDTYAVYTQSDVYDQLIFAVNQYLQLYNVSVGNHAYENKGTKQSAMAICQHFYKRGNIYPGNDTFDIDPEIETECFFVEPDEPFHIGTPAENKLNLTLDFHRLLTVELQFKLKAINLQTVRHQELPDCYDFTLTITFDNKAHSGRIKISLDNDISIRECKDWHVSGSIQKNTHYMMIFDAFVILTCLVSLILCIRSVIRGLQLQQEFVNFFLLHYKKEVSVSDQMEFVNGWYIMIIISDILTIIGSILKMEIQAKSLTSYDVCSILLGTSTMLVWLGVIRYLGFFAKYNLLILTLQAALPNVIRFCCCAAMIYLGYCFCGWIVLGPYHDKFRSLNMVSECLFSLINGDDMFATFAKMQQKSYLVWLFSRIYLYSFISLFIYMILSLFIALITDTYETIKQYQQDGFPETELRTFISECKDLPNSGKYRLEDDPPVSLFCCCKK
Outline: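 HEK-293 Trex cells with tet-inducible (0.5 ug/mL doxycycline, overnight) surface-targeted mutant channel, Fluo4-AM loaded, suspended in Ringer's with 10 mM calcium. Compounds tested 20 µM to 6 nM final, half-log steps, triplicate; fluorescence at ex 480/em 540 nm. EC50 by non-linear regression of percent activity versus plate controls.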

TRPML2 = target: T2, TRPML2 (Homo sapiens, UniProt Q8IZK6); experiment: Fluorescent TRPML2 assay (as for TRPML1)
T2 construct: expressed in transfected cells
T2 sequence (Q8IZK6 1-566): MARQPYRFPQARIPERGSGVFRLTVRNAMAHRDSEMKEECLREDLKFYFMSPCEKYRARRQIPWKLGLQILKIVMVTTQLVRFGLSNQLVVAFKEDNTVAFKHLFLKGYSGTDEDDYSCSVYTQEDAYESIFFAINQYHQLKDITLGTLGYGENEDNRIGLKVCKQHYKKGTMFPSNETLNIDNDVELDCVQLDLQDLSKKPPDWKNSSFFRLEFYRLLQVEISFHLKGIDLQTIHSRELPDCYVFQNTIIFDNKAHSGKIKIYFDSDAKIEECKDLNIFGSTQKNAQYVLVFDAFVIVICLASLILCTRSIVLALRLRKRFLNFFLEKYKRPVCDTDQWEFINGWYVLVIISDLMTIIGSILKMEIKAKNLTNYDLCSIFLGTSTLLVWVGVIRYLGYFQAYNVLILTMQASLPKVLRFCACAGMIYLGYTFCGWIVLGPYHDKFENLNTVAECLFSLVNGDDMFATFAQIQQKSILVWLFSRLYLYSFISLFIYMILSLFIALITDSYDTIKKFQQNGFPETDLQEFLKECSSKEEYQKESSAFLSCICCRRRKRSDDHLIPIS
Procedure: HEK-293 Trex cells were stably transfected with a construct consisting of the human coding sequence for TRPML1 cloned into the tet-inducible plasmid pCDNA5 T/O. Mutations were introduced into the TRPML1 sequence to facilitate expression on the cell surface (Silvia Vergarajauregui, Rosa Puertollano Traffic. 2006 March; 7 (3): 337-353). Briefly, the cells are cultured in 150 mm round tissue culture dishes containing 20 mL of media. The day before the assay the cells are rinsed with DPBS —Ca—Mg and then treated briefly with Trypsin-EDTA. The Trypsin-EDTA is diluted with growth media, and cells are counted. 38×10^6 cells are re-plated into 150 mm round tissue culture dishes in media containing 0.5 ug/mL doxycycline to induce expression of hTRPML1.
The day of the experiment cells are lifted from the plates as above and collected by centrifugation. The cells are then suspended in dye loading buffer consisting of Ringer's solution supplemented with 0.1% Pluronic Acid and 1 micromolar Fluo4-AM dye. Cells are loaded for ˜60 minutes in the dark with occasional mixing. The cells are collected by centrifugation, the loading media aspirated, and the cells resuspended in 25 mL Ringer's solution and incubated ˜60 minutes in the dark. The cells are again collected by centrifugation, rinsed in Ringer's Solution and resuspended to 0.2×10^6 cells/mL in modified Ringer's solution containing 10 mM calcium.
Compounds are dissolved to a concentration of 10 millimolar with DMSO. Compound plates are created by dispensing compounds into 384 well black wall clear bottom plates (Greiner 781091). Positive and negative controls are included on each plate. Typically, different amounts of each compound are tested ranging from 100 nanoMoles (20 micromolar final concentration) decreasing in half-log steps to 31 picoMoles (6 nanomolar final concentration). Each concentration is typically tested in triplicate.
50 microliters of dye-loaded cells are dispensed into each well of the compound assay plate created above. The fluorescence in each well is then determined with an excitation wavelength of 480 nm and an emission wavelength of 540 nm using either a Molecular Devices SpectraMax multimode plate reader or a Hamamatsu FDSS/uCell plate imager.
The resulting fluorescence for each well is exported as an ascii file and loaded into our LIMS for analysis. The percent activity of each compound at each concentration is determined by comparison to the positive and negative control wells included in each plate.
Assays for TRPML2 and TRPML3 were performed as above for TRPML1, by substituting the appropriate TRPML2 or TRPML3 subtype for the TRPML1.
EC50 values were calculated using a non-linear regression of Prism. In the table, “A” indicates an EC50 of less than 100 nM, “B” indicates an EC50 range from 100 nM to 500 nM; “C” indicates an EC50 range from 500 nM to 2 μM; and “D” indicates an EC50 greater than 2 μM.

Sequence of human TRPML1 (Q9GZU1 whole entry L15A/L16A/L577A/L578A, form open): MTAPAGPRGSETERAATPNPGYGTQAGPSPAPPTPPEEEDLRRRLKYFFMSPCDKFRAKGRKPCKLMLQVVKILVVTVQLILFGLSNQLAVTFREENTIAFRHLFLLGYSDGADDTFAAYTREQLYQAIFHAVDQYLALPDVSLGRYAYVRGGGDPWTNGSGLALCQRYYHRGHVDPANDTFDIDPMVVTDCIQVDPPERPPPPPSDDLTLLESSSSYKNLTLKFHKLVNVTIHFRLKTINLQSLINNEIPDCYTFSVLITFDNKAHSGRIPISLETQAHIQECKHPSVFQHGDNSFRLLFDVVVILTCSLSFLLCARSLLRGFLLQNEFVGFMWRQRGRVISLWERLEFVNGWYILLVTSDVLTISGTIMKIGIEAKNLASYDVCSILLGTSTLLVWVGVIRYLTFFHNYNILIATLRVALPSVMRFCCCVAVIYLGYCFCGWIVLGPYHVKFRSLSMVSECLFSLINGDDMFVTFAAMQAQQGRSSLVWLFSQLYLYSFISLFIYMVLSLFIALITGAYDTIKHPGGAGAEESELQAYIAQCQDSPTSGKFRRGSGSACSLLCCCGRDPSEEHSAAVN

SMILES | EC50 (human TRPML1; Table 3, compounds 101-177) | EC50 (TRPML3; Table 3, compounds 101-177) | EC50 (TRPML2; Table 3, compounds 101-177) | EC50 (human TRPML1; Table 3, compounds 201-283) | EC50 (TRPML3; Table 3, compounds 201-283) | EC50 (TRPML2; Table 3, compounds 201-283)
CC(C)C(=O)N1CCN(c2ncnc3c2c(-c2ccccc2F)cn3-c2cc(C#N)n(C)n2)[C@@H](C)C1 [Compound 146, (S)-3-(5-(2-fluorophenyl)-4-(4-isobutyryl-2-methylpiperazin-1-yl)-7H-pyrrolo[2,3-d]pyrimidin-7-yl)-1-methyl-1H-pyrazole-5-carbonitrile] | 100 to 500 nM | 100 to 500 nM | 500 to 2000 nM |  |  | 
C[C@H]1CN(C(=O)C2(C)CC2)CCN1c1ncnc2c1c(-c1ccccc1)cn2-c1cc(C#N)ccn1 [Compound 128, (S)-2-(4-(2-methyl-4-(1-methylcyclopropane-1-carbonyl)piperazin-1-yl)-5-phenyl-7H-pyrrolo[2,3-d]pyrimidin-7-yl)isonicotinonitrile] | < 100 nM | < 100 nM | < 100 nM |  |  | 
C[C@H]1CN(C(=O)CC(C)(C)C(F)(F)F)CCN1c1ncnc2c1c(-c1ccccc1F)cn2-c1cc(C#N)ccn1 [Compound 140, (S)-2-(5-(2-fluorophenyl)-4-(2-methyl-4-(4,4,4-trifluoro-3,3-dimethylbutanoyl)piperazin-1-yl)-7H-pyrrolo[2,3-d]pyrimidin-7-yl)isonicotinonitrile] | < 100 nM | < 100 nM | < 100 nM |  |  | 
C[C@@H]1CN(c2ncnc3c2c(-c2ccccc2F)cn3-c2cc(C#N)ccn2)CCN1C(=O)C1(F)CC1 [Compound 131] | < 100 nM | < 100 nM | 100 to 500 nM |  |  | 
C[C@@H]1CN(c2ncnc3c2c(-c2ccccc2F)cn3-c2cc(C#N)ccn2)[C@@H](C)CN1C(=O)C(C)(C)C [Compound 230, 2-(4-((2S,5R)-2,5-dimethyl-4-pivaloylpiperazin-1-yl)-5-(2-fluorophenyl)-7H-pyrrolo[2,3-d]pyrimidin-7-yl)isonicotinonitrile] |  |  |  | < 100 nM | < 100 nM | < 100 nM
CC(C)CC(=O)N1CCN(c2ncnc3c2c(N2CCC2)cn3-c2cc(C#N)ccn2)C[C@H]1C [Compound 272, (R)-2-(5-(azetidin-1-yl)-4-(3-methyl-4-(3-methylbutanoyl)piperazin-1-yl)-7H-pyrrolo[2,3-d]pyrimidin-7-yl)isonicotinonitrile] |  |  |  | < 100 nM | < 100 nM | 100 to 500 nM
C[C@H]1CN(C(=O)C(C)(C)C)CCN1c1ncnc2c1c(-c1ccccc1)cn2-c1cc(C#N)ccn1 [Compound 120, (S)-2-(4-(2-methyl-4-pivaloylpiperazin-1-yl)-5-phenyl-7H-pyrrolo[2,3-d]pyrimidin-7-yl)isonicotinonitrile] | < 100 nM | < 100 nM | 100 to 500 nM |  |  | 
COC(C)(C)C(=O)N1CCN(c2ncnc3c2c(C2CC2)cn3-c2cc(C#N)ccn2)C[C@H]1C [Compound 265, (R)-2-(5-cyclopropyl-4-(4-(2-methoxy-2-methylpropanoyl)-3-methylpiperazin-1-yl)-7H-pyrrolo [2,3-d]pyrimidin-7-yl)isonicotinonitrile] |  |  |  | < 100 nM | < 100 nM | 100 to 500 nM
C[C@@H]1CN(c2ncnc3c2c(N2CCC2)cn3-c2cc(C#N)ccn2)[C@@H](C)CN1C(=O)C(C)(C)C [Compound 276, 2-(5-(azetidin-1-yl)-4-((2S,5R)-2,5-dimethyl-4-pivaloylpiperazin-1-yl)-7H-pyrrolo[2,3-d]pyrimidin-7-yl)isonicotinonitrile] |  |  |  | < 100 nM | < 100 nM | 100 to 500 nM
CC(C)(O)C(=O)N1CCN(c2ncnc3c2c(-c2ccccc2F)cn3-c2cc(C#N)ccn2)C(C)(C)C1 [Compound 170, 2-(5-(2-fluorophenyl)-4-(4-(2-hydroxy-2-methylpropanoyl)-2,2-dimethylpiperazin-1-yl)-7H-pyrrolo[2,3-d]pyrimidin-7-yl)isonicotinonitrile] | < 100 nM | < 100 nM | 100 to 500 nM |  |  | 
C[C@@H]1CN(c2ncnc3c2c(C2CCC2)cn3-c2cccc(Cl)c2)[C@@H](C)CN1C(=O)CC(C)(C)C(F)(F)F [Compound 258, 1-((2R,5S)-4-(7-(3-chlorophenyl)-5-cyclobutyl-7H-pyrrolo[2,3-d]pyrimidin-4-yl)-2,5-dimethylpiperazin-1-yl)-4,4,4-trifluoro-3,3-dimethylbutan-1-one] |  |  |  | 100 to 500 nM | 100 to 500 nM | 500 to 2000 nM
COC(C)(C)C(=O)N1CCN(c2ncnc3c2c(-c2ccccc2F)cn3-c2cc(C#N)ccn2)[C@@H](C)C1 [Compound 242, (S)-2-(5-(2-fluorophenyl)-4-(4-(2-methoxy-2-methylpropanoyl)-2-methylpiperazin-1-yl)-7H-pyrrolo[2,3-d]pyrimidin-7-yl)isonicotinonitrile] |  |  |  | < 100 nM | 100 to 500 nM | 100 to 500 nM
C[C@@H]1CN(c2ncnc3c2c(C(F)(F)F)cn3-c2cc(C#N)ccn2)[C@@H](C)CN1C(=O)CC(C)(C)C [Compound 209, 2-(4-((2S,5R)-4-(3,3-dimethylbutanoyl)-2,5-dimethylpiperazin-1-yl)-5-(trifluoromethyl)-7H-pyrrolo[2,3-d]pyrimidin-7-yl)isonicotinonitrile] |  |  |  | < 100 nM | < 100 nM | < 100 nM
COC(C)(C)C(=O)N1C[C@H](C)N(c2ncnc3c2c(-c2ccccc2F)cn3-c2cc(C#N)ccn2)C[C@H]1C [Compound 232, 2-(5-(2-fluorophenyl)-4-((2S,5R)-4-(2-methoxy-2-methylpropanoyl)-2,5-dimethylpiperazin-1-yl)-7H-pyrrolo[2,3-d]pyrimidin-7-yl)isonicotinonitrile] |  |  |  | < 100 nM | < 100 nM | < 100 nM
CC(C)C(=O)N1CCN(c2ncnc3c2c(-c2ccccc2F)cn3-c2cc(C#N)ccn2)C2(CC2)C1 [Compound 155, 2-(5-(2-fluorophenyl)-4-(7-isobutyryl-4,7-diazaspiro[2.5]octan-4-yl)-7H-pyrrolo[2,3-d]pyrimidin-7-yl)isonicotinonitrile] | < 100 nM | < 100 nM | 100 to 500 nM |  |  | 
